Assay [1] has as its system basophils in whole human peripheral blood. Kind of assay: Basophil ionomycin activation: histamine release assay. Type of assay: cell-based. The method, then:
Assays for ionomycin-induced basophil cell degranulation were carried out as described for the Basophil IgE or Dustmite Activation Assay (Section 6.4.6, supra), with the exception that following incubation with compound, cells were stimulated with 20 μl of 2 μM ionomycin.

Assay [2] concerns IgE-induced degranulation of tissue mast cells. Kind of assay: Mouse model of passive cutaneous anaphylaxis (PCA). Type of assay: in vivo. The following applies: for inhibition of the PCA response: oral route in a PEG-based formulation, data not shown. The method, then: This model provides a direct measure of IgE-induced degranulation of tissue mast cells. In this model, IgE primed animals are exposed to an allergen challenge, and the change in permeability of dermal vasculature that results from histamine release from mast cells is measured by change in the amount of dye leakage into surrounding tissue. Inhibition of mediator release by compounds that modulate mast cell degranulation is easily measured by extracting the dye from the tissue.
In the PCA assay mice are passively sensitized by intradermal injection with anti-dinitrophenol (DNP) IgE antibodies (Day −1). At predetermined times animals are treated with the test agent (Day 0). The modulatory effect of the agent on cutaneous mast cell degranulation is measured following intravenous injection of DNP conjugated to human serum albumin (HSA-DNP), together with Evans blue dye. The resulting cross-linking of the IgE receptor and subsequent mast cell degranulation-induced increase in vascular permeability is determined by measuring the amount of dye extravasation into the tissue. Dye is extracted from the tissue by formamide, and the absorbance of this extract is read at 620 nm.

Assay [3] has as its target FcγRI receptor-mediated degranulation. Kind of assay: FcγRI-mediated degranulation (activation with anti-human IgG Fab fragment). The following applies: cells not primed with IgE, activated with rabbit anti-human IgG Fab fragment.
Assay [4] has as its system bone marrow derived mast cells (BMMC). Put plainly: BMMC high cell density IgE activation: degranulation (hexosiminidase, histamine), leukotriene (LTC4) and cytokine (TNFalpha, IL-6) assays. In kind it is cell-based. The following applies: Mus musculus, anti-IgE activation.
The test system of assay [5] is Jurkat cells. Kind of assay: Jurkat toxicity: Cell Titer Glo assay. Type of assay: cell-based. The following applies: Homo sapiens, 18 hours. Here is the method:
Seed 50 μl cells (1×10^6/ml) into each well containing 50 μl compound. […] Shake plates for 1 minute to mix cells and compound. Incubate plates at 37° C. […] Next day, harvest 50 μl cells from each well, add to 50 μl Cell Titer Glo reagent ([…]). Shake plates for 1 minute. Read on luminometer.

Assay [6] relates to cultured human mast cells (CHMC). Kind of assay: CHMC low cell density IgE activation: tryptase and LTC4 assays. In kind it is cell-based. The following applies: Homo sapiens, Mast cell, Low Density CHMC, anti-IgE activation. In outline:
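Degranulation measured after 30 min anti-IgE challenge at 37° C of CHMC plated at 1000-1500 cells/well following 1 h preincubation. Readouts: LTC4 by ELISA on donor-specific diluted supernatants, and tryptase activity from a 30 min room-temperature substrate reaction.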

Assay [7] shares this test system. Put plainly: CHMC low cell density ionomycin activation: tryptase assay. In kind it is cell-based. The following applies: Homo sapiens, Mast cell, Low Density CHMC, ionomycin activation, tryptase readout; read-out: CHMC Ionomycin Tryptase.
The test system is the same in assay [8]. Put plainly: CHMC high cell density IgE activation: degranulation (hexos, tryptase, histamine), leukotriene (LTC4) and cytokine (TNFalpha, IL-13) assays. Type of assay: cell-based. As to conditions: anti-IgE activation. The method, then:
After sensitizing, cells are counted, pelleted (1000 rpm, 5-10 minutes), and resuspended at 1-2×10^6 cells/ml in MT buffer. Add 100 ul of cell suspension to each well and 100 ul of compound dilutions. The final vehicle concentration is 0.5% DMSO. Incubate at 37° C. (5% CO2) for 1 hour. After 1 hour of compound treatment, stimulate cells with 6× anti-IgE. Mix wells with the cells and allow plates to incubate at 37° C. (5% CO2) for one hour. After 1 hour incubation, pellet cells (10 minutes, 1000 RPM) and collect 200 ul per well of the supernatant, being careful not to disturb pellet. Place the supernatant plate on ice. During the 7-hour step (see next) perform tryptase assay on supernatant that had been diluted 1:500. Resuspend cell pellet in 240 ul of CM media containing 0.5% DMSO and corresponding concentration of compound. Incubate CHMC cells for 7 hours at 37° C. (5% CO2). After incubation, pellet cells (1000 RPM, 10 minutes) and collect 225 ul per well and place in −80° C. until ready to perform ELISAS. ELISAS are performed on appropriately diluted samples (determined empirically for each donor cell population so that the sample measurement falls within the standard curve) following the supplier's instructions.

Where [9] appears, read: IL-6 release, read-out: BMMC anti-IgE IL-6 IC50.
Setting [10] is: LTC4 release, read-out: BMMC anti-IgE LTC4 IC50.
Where [11] appears, read: TNF-alpha release, read-out: BMMC anti-IgE TNF-alpha IC50.
Where [12] appears, read: hexosaminidase release, read-out: BMMC anti-IgE hexos IC50.
The mark [13] stands for this setting: histamine release, read-out: BMMC anti-IgE histamine IC50.
The mark [14] stands for this setting: tryptase readout, read-out: CHMC anti-IgE Tryptase.
Where [15] appears, read: LTC4, read-out: CHMC high density LTC4.
Setting [16] is: TNF-alpha, read-out: CHMC high density TNF-alpha.
[17] abbreviates: hexosaminidase release, read-out: CHMC high density hexos.
Setting [18] is: histamine release, read-out: CHMC high density histamine.
[19] abbreviates: tryptase release, read-out: CHMC high density tryptase.

Consider 13 compounds from patent US10828301B2, “2,4-pyrimidinediamine compounds and their uses” (Rigel Pharmaceuticals, Inc, priority 2002, dated 2020).

Like-named read-outs stand apart in the source and are kept apart here.

For the compound `CNC(=O)COc1cccc(Nc2ncc(F)c(Nc3ccc4c(c3)OCCO4)n2)c1` [Compound R926495, N4-(3,4-Ethylenedioxyphenyl)-5-fluoro-N2-[3-(N-methylamino)carbonylmethyleneoxyphenyl]-2,4-pyrimidinediamine], the IC50 in assay [1] is more than 10 µM. For the same compound, in assay [2], the “inhibition of the PCA response” value is “able to inhibit the PCA response”.
Take `CNC(=O)COc1cccc(Nc2ncc(F)c(Nc3ccc4c(c3)NC(=O)C(F)(F)O4)n2)c1` [Compound R921303, N4-[(2,2-Difluoro-4H-benzo[1,4]oxazin-3-one)-6-yl]-5-fluoro-N2-[3-(methylaminocarbonylmethyleneoxy)phenyl]-2,4-pyrimidinediamine]: the “inhibition of FcγRI-mediated degranulation” value in assay [3] is “inhibit FcγRI-mediated degranulation”.
For `OCCOc1cccc(Nc2ncc(F)c(Nc3ccc4c(c3)OCCO4)n2)c1` [Compound R935154, N4-(3,4-Ethylenedioxyphenyl)-5-fluoro-N2-[3-(2-hydroxyethoxy)phenyl]-2,4-pyrimidinediamine], the IC50 is 41 nM in assay [4] (setting [9]); 547 nM in assay [4] (setting [10]); 131 nM in assay [4] (setting [11]); 104 nM in assay [4] (setting [12]); 85 nM in assay [4] (setting [13]); more than 4.33 µM in assay [5]. The values for the IC50 in assay [6] (setting [14]) and in assay [7] were 127 nM and more than 10 µM, respectively.
With `Nc1cccc(Nc2ncc(F)c(Nc3ccc4c(c3)OCCO4)n2)c1` [Compound R950207, N2-(3-Aminophenyl)-N4-(3,4-ethylenedioxyphenyl)-5-fluoro-2,4-pyrimidinediamine], the IC50 was less than 220 nM in assay [4] (setting [9]); 288 nM in assay [4] (setting [10]); less than 220 nM in assay [4] (setting [11]); less than 220 nM in assay [4] (setting [12]); less than 220 nM in assay [4] (setting [13]); more than 4.33 µM in assay [5]. For the same compound, the figures for the IC50 in assay [6] (setting [14]) and in assay [7] were 164 nM and more than 10 µM, respectively.
Take `NC12OCCON1C(Nc1ccc3oc(CO)cc3c1)=NC=C2F` (centres unmarked) [Compound R926696, N4-(3,4-Ethylenedioxy)-5-fluoro-N2-[2-(hydroxymethyl)benzofuran-5-yl]-2,4-pyrimidinediamine]: the IC50 in assay [5] is more than 5 µM; in assay [8] (IL-13, read-out: CHMC high density IL-13) it was 1770 nM; in assay [8] (setting [15]), less than 1100 nM; in assay [8] (setting [16]), less than 1100 nM; in assay [8] (setting [17]), less than 1100 nM; in assay [8] (setting [18]), less than 1100 nM. In addition, the IC50 in assay [8] (setting [19]) is less than 1100 nM; in assay [6] (setting [14]) it was 309 nM; in assay [7] it was more than 10 µM.
Consider `CNC(=O)c1cc2cc(Nc3ncc(F)c(Nc4cccc(O)c4)n3)ccc2o1` [Compound R926493, 5-Fluoro-N4-(3-hydroxyphenyl)-N2-[2-(N-methylamino)carbonylbenzofuran-5-yl]-2,4-pyrimidinediamine], for which the IC50 in assay [5] is more than 4.33 µM; in assay [8] (setting [15]) it was 474 nM; in assay [8] (setting [16]), more than 2000 nM; in assay [8] (setting [17]), 889 nM; in assay [8] (setting [18]), 1320 nM; in assay [8] (setting [19]), 1090 nM. Moreover, the IC50 in assay [6] (LTC4 readout, read-out: CHMC anti-IgE LTC4) is 78 nM; in assay [6] (setting [14]), 250 nM; in assay [7], 9.18 µM.
Regarding `CC(C)Oc1ccc(Nc2nc(Nc3cccc(OCCO)c3)ncc2F)cc1` [Compound R935156, 5-Fluoro-N2-[3-(2-hydroxyethoxy)phenyl]-N4-(4-isopropoxyphenyl)-2,4-pyrimidinediamine], the IC50 in assay [4] (setting [9]) was less than 220 nM; in assay [4] (setting [10]) it was 433 nM; in assay [4] (setting [11]), 220 nM; in assay [4] (setting [12]) it was less than 220 nM; in assay [4] (setting [13]) it was less than 220 nM; in assay [5], 4.05 µM. The IC50 in assay [6] (setting [14]) is 149 nM; in assay [7] it was more than 10 µM.
In the case of `CNC(=O)COc1cccc(Nc2ncc(F)c(Nc3ccc4c(n3)NC(=O)C(C)(C)O4)n2)c1` [Compound R940347, N4-[(2,2-Dimethyl-4H-5-pyrido[1,4]oxazin-3-one)-6-yl]-5-fluoro-N2-[3-(methylaminocarbonylmethyleneoxy)phenyl]-2,4-pyrimidinediamine], the “inhibition of FcγRI-mediated degranulation” value in assay [3] was “inhibit FcγRI-mediated degranulation”.
With `CNC(=O)COc1cccc(Nc2ncc(F)c(Nc3ccc4cc[nH]c4c3)n2)c1` [Compound R926745, 5-Fluoro-N4-[(1H)-indol-6-yl]-N2-[3-(N-methylamino)carbonylmethyleneoxyphenyl]-2,4-pyrimidinediamine], in assay [2], the “inhibition of the PCA response” value was “able to inhibit the PCA response”.
Regarding `O=C1Nc2cc(Nc3ncc(F)c(Nc4ccc5c(c4)NC(=O)C(F)(F)O5)n3)ccc2OC1(F)F` [Compound R940352, N2,N4-[(2,2-Difluoro-4H-benzo[1,4]oxazin-3-one)-6-yl]-5-fluoro-2,4-pyrimidinediamine], in assay [3], the “inhibition of FcγRI-mediated degranulation” value is recorded as “inhibit FcγRI-mediated degranulation”.
In the case of `CN(C)CCOC(c1ccccc1)c1ccccc1` [diphenhydramine, reference compound], the “inhibition of the PCA response / FcεR-mediated vascular leakage (in words)” value in assay [2] (mouse, in vivo) is on record as “inhibit the PCA response”.
Take `Oc1cccc(Nc2nc(Nc3ccc4c(c3)N=CCO4)ncc2F)c1` [Compound R909241, N2-(1,4-Benzoxazin-6-yl)-5-fluoro-N4-(3-hydroxyphenyl)-2,4-pyrimidinediamine]: the IC50 was less than 220 nM in assay [4] (setting [9]); 1020 nM in assay [4] (setting [10]); 253 nM in assay [4] (setting [11]); less than 220 nM in assay [4] (setting [12]); less than 220 nM in assay [4] (setting [13]); 3.74 µM in assay [5]. Further, the figures for the IC50 in assay [6] (setting [14]) and in assay [7] were 181 nM and more than 10 µM, respectively.
In assay [1], `CNC(=O)COc1cccc(Nc2ncc(F)c(Nc3cccc(O)c3)n2)c1` [Compound R926508, 5-Fluoro-N4-(3-hydroxyphenyl)-N2-[3-(N-methylamino)carbonylmethyleneoxyphenyl]-2,4-pyrimidinediamine] registered an IC50 of more than 10 µM. Moreover, the “inhibition of the PCA response” value in assay [2] is recorded as “able to inhibit the PCA response”.
